From patent US20100216889A1, “PROLONGED EFFECT DISINFECTANT CLEANSER” (THE TRUSTEES OF COLUMBIA UNIVERSITY IN THE CITY OF, priority 2007, published 2010)

Tested on: S. aureus
Test: Antiseptics and combinations in soap base C, mixed one minute with S. aureus
Assay type: cell-based
Conditions: antiseptics in soap base C; for Colony counts: 0.1 ml of 10^8 cfu/ml S. aureus mixed for one minute; for Log10 reduction from Control: S. aureus, one minute, control = soap base
Experimental: To 0.9 ml of the base, 0.1 ml of 10^8 cfu/ml of S. aureus was added and mixed for one minute, after which 9.0 ml of drug inactivating media was added. The samples were mixed well and serial dilutions were made with drug inactivating media. Various dilutions were plated on TSA plates. As the control, […] of soap base was used.

Row | Compound | Colony counts | Log10 reduction from Control
1 | N=C(NCCCCCCNC(=N)NC(=N)Nc1ccc(Cl)cc1)NC(=N)Nc1ccc(Cl)cc1.O=C(O)[C@H](O)[C@@H](O)[C@H](O)[C@H](O)CO.O=C(O)[C@H](O)[C@@H](O)[C@H](O)[C@H](O)CO [0.2% CHG, Chlorhexidine gluconate] | 4.1 × 10^6 | 0.92
2 | Oc1cc(Cl)ccc1Oc1ccc(Cl)cc1Cl [0.5% TC, Triclosan] | 4.3 × 10^6 | 0.89
3 | CC(C)(C)CC(C)(C)c1ccc(OCCOCC[N+](C)(C)Cc2ccccc2)cc1.[Cl-] [0.18% BZT, Benzathonium chloride] | 3.9 × 10^6 | 0.94
4 | Polyhexamethylene biguanide [0.3% PHMB] | 2.0 × 10^6 | 1.17
